Reference: patent publication US12685735B2 (Foghorn Therapeutics Inc., priority 2020, dated 2026)
Read-outs that look alike come from different tables or passages of the source.

Tests used:
BRG-1 = BRG-1 (Homo sapiens, UniProt P51532); experiment: ATPase catalytic activity assay of BRG-1 (ADP-Glo); format: biochemical; settings: ATPase catalytic activity, ADP-Glo; for IC50: read-out: BRG1 IC50 (μM)*; for Emax: read-out: BRG1 Max % Inhibition
In short: (§1)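 Luminescence from ADP formed by BRM or BRG-1 ATPase was detected after a two-step ADP-Glo workup at room temperature. The first step, removing unconsumed ATP, took 40 min; the second, converting ADP to ATP for luciferase, took 60 min.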

BRM = BRM (Homo sapiens, UniProt P51531); experiment: ATPase catalytic activity assay of BRM (ADP-Glo); format: biochemical; settings: for IC50: read-out: BRM IC50 (μM)*
Sequence of BRM (P51531 whole entry): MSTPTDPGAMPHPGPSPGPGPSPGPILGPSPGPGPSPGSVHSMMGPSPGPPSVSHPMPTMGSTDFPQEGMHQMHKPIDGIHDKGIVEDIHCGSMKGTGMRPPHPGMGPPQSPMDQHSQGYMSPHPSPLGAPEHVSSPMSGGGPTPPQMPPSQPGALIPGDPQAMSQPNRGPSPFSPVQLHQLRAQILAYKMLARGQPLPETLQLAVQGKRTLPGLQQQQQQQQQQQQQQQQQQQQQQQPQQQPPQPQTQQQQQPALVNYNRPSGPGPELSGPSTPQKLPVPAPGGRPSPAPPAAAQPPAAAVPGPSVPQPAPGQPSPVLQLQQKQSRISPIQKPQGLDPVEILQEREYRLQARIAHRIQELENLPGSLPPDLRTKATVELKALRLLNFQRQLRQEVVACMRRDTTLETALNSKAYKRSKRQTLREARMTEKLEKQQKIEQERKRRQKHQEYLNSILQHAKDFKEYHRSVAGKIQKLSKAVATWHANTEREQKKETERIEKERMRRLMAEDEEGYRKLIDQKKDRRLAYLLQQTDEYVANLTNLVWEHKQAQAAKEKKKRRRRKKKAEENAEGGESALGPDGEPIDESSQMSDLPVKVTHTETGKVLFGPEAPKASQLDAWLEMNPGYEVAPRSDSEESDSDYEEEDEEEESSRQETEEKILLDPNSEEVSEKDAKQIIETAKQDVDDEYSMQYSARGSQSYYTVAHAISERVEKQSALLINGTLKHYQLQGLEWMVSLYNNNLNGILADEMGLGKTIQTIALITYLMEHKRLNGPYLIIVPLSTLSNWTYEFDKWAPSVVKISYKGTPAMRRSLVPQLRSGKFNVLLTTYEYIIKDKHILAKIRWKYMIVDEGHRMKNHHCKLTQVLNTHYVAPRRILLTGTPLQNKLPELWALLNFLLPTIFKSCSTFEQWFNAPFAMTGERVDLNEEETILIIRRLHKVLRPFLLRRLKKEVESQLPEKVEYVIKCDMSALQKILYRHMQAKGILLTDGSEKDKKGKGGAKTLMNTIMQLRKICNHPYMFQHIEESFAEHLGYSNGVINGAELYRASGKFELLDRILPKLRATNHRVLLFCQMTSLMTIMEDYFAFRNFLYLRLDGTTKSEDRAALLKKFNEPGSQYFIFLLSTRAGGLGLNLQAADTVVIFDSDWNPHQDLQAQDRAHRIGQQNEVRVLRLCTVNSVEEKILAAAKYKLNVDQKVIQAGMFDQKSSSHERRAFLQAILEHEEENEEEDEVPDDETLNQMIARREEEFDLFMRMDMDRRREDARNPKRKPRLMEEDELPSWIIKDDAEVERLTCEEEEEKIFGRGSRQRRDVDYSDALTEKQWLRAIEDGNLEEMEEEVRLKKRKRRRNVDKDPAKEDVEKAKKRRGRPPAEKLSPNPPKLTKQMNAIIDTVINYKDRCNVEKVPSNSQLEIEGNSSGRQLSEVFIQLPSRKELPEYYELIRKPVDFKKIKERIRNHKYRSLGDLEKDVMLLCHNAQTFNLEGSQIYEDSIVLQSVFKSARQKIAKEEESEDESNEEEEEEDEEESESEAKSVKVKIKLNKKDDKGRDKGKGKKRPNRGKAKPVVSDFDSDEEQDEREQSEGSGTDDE
In short: as §1

Sequence of BRG-1 (P51532 whole entry): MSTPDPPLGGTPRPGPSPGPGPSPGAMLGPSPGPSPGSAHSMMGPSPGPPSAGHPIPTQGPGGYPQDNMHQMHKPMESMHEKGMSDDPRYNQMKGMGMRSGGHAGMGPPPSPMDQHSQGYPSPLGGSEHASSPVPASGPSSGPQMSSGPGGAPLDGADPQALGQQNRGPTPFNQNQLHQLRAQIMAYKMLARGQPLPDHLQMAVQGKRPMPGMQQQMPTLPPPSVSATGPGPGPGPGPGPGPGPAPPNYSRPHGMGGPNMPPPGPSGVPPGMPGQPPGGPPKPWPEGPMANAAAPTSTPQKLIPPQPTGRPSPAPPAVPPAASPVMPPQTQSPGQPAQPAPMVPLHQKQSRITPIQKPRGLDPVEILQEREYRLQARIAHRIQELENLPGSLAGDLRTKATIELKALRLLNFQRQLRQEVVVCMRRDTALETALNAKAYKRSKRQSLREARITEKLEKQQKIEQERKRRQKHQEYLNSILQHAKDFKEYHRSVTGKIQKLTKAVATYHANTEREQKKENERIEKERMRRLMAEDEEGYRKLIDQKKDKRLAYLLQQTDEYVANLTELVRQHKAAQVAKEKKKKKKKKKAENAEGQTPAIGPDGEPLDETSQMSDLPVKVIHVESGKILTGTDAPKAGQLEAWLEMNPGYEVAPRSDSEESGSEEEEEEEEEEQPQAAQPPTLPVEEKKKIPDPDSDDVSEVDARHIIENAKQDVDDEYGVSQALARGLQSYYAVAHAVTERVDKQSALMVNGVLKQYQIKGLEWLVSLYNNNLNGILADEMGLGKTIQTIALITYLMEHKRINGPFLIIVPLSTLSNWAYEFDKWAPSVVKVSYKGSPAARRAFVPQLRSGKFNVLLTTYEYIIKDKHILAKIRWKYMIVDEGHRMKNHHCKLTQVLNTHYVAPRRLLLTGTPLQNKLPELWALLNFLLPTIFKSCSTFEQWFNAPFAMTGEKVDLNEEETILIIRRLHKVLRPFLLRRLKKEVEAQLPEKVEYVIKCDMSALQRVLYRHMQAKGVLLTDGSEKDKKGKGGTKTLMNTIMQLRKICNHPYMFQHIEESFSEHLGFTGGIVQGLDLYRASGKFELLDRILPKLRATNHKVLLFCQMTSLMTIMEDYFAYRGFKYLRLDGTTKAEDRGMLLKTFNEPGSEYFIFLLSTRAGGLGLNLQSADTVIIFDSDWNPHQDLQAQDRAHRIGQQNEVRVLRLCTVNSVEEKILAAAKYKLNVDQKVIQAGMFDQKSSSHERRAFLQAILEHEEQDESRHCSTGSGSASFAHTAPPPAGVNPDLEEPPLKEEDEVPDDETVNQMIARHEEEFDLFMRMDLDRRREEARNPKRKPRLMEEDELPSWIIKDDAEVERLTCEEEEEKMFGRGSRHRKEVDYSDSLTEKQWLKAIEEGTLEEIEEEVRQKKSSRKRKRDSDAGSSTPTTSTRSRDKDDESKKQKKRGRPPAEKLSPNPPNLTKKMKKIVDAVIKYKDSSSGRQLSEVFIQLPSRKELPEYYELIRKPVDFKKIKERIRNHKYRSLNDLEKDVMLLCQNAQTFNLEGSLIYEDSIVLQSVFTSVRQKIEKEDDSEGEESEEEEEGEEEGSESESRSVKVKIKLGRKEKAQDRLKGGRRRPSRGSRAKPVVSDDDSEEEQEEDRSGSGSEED

Row | IC50 (BRG-1) [µM] | Emax (BRG-1) [%] | BRM Max % Inhibition (BRM) [%] | IC50 (BRM) [µM] | IC50 (BRG-1; 30 nM BRG-1, 400 μM ATP) [µM] | Emax (BRG-1; 30 nM BRG-1, 400 μM ATP) [%] | BRM Max % Inhibition (BRM; 30 nM BRM, 400 μM ATP) [%] | IC50 (BRM; 30 nM BRM, 400 μM ATP) [µM] | Structure (SMILES)
1 | < 0.1 | > 95 | >95 | < 0.1 |  |  |  |  | C[C@@H]1CN(c2cccc(-c3csc(NC(=O)CNC(=O)c4ccc5c(c4)C(F)(C(F)F)COC5)n3)c2)C[C@H](C)O1 (stereo partly drawn) [Compound 329, 4-(difluoromethyl)-N-(2-((4-(3-((cis)-2,6-dimethylmorpholino)phenyl)thiazol-2-yl)amino)-2-oxoethyl)-4-fluoroisochromane-6-carboxamide]
2 | 0.1 to 1 | > 95 | >95 | < 0.1 |  |  |  |  | C[C@@]1(C#N)COCc2ccc(C(=O)NCC(=O)Nc3nc(-c4cccc(C5CCO5)c4)cs3)cc21 (stereo partly drawn) [Compound 371, (R)-4-cyano-4-methyl-N-(2-((4-(3-(oxetan-2-yl)phenyl)thiazol-2-yl)amino)-2-oxoethyl)isochromane-6-carboxamide]
3 | 0.1 to 1 | > 70 | >95 | < 0.1 |  |  |  |  | C[C@@H]1CN(c2cccc(-c3csc(NC(=O)CNC(=O)c4cccc(C5(C)COC5)c4)n3)n2)C[C@H](C)O1 [Compound 187, N-[2-[[4-[6-[(cis)-2,6-dimethylmorpholin-4-yl]-2-pyridyl]thiazol-2-yl]amino]-2-oxo-ethyl]-3-(3-methyloxetan-3-yl)benzamide]
4 | 0.1 to 1 | > 95 | >95 | < 0.1 |  |  |  |  | CC1CC(c2cccc(-c3csc(NC(=O)CNC(=O)c4ccc5c(c4)[C@](C)(C#N)COC5)n3)c2)O1 (stereo partly drawn) [Compound 340, (R)-4-cyano-4-methyl-N-(2-((4-(3-(4-methyloxetan-2-yl)phenyl)thiazol-2-yl)amino)-2-oxoethyl)isochromane-6-carboxamide]
5 | 0.1 to 1 | > 80 | >95 | < 0.1 |  |  |  |  | Cc1cc(-c2cccc(-c3csc(NC(=O)CNC(=O)c4ccc5c(c4)[C@](C)(CO)CCC5)n3)c2)cc(C)n1 [Compound 232, (R)-N-(2-((4-(3-(2,6-dimethylpyridin-4-yl)phenyl)thiazol-2-yl)amino)-2-oxoethyl)-8-(hydroxymethyl)-8-methyl-5,6,7,8-tetrahydronaphthalene-2-carboxamide]
6 | > 5 | > 50 | >95 | 0.1 to 1 |  |  |  |  | C[C@@H]1CN(c2cccc(-c3csc(NC(=O)CNC(=O)c4ccc5c(c4)[C@@](C)(CO)CCO5)n3)c2)C[C@H](C)O1 [Compound 166, (S)-N-(2-((4-(3-((cis)-2,6-dimethylmorpholino)phenyl)thiazol-2-yl)amino)-2-oxoethyl)-4-(hydroxymethyl)-4-methylchroman-6-carboxamide]
7 | > 5 | > 40 | >90 | 0.1 to 1 |  |  |  |  | CC(=O)NCc1cccc(-c2cccc(-c3csc(NC(=O)CNC(=O)c4cccc(S(=O)(=O)C(C)C)c4)n3)c2)c1 [Compound 111, N-(2-((4-(3′-(acetamidomethyl)-[1,1′-biphenyl]-3-yl)thiazol-2-yl)amino)-2-oxoethyl)-3-(isopropylsulfonyl) benzamide]
8 | > 5 | > 50 | >50 | 0.1 to 1 |  |  |  |  | Cn1ccc2ccc(-c3csc(NC(=O)CNC(=O)c4ccc5c(c4)C4(CCO5)COC4)n3)cc2c1=O [Compound 382, N-(2-((4-(2-methyl-1-oxo-1,2-dihydroisoquinolin-7-yl)thiazol-2-yl)amino)-2-oxoethyl)spiro[chromane-4,3′-oxetane]-6-carboxamide]
9 |  |  |  |  | > 5 | > 85 | >85 | 0.1 to 1 | C[C@@H]1CN(c2cccc(-c3csc(NC(=O)CNC(=O)c4ccnc(C(C)(C#N)CO)c4)n3)c2)C[C@H](C)O1 (stereo in doubt) [Compound 427, 2-((R)-2-cyano-1-hydroxypropan-2-yl)-N-(2-((4-(3-((cis)-2,6-dimethylmorpholino)phenyl)thiazol-2-yl)amino)-2-oxoethyl)isonicotinamide]
10 | 1 to 5 | > 90 | >90 | 0.1 to 1 |  |  |  |  | C[C@@H]1CN(c2cccc(-c3csc(NC(=O)CNC(=O)c4ccc5c(c4)[C@H](C#N)CCO5)n3)n2)C[C@H](C)O1 (racemic) [Compound 405, rac-4-cyano-N-(2-((4-(6-((cis)-2,6-dimethylmorpholino)pyridin-2-yl)thiazol-2-yl)amino)-2-oxoethyl)chromane-6-carboxamide]
11 | 0.1 to 1 | > 95 | >90 | 0.1 to 1 |  |  |  |  | C[C@H](NC(=O)c1cccc(C(C)(C)CN)c1)C(=O)Nc1nc(-c2cccc(-c3ccncc3)c2)cs1 [Compound 65, (S)-3-(1-amino-2-methylpropan-2-yl)-N-(1-oxo-1-((4-(3-(pyridin-4-yl)phenyl)thiazol-2-yl)amino)propan-2-yl)benzamide]
12 | 0.1 to 1 | > 80 | >95 | < 0.1 |  |  |  |  | CC1(C)c2cc(C(=O)NCC(=O)Nc3nc(-c4cccc(-c5ccncc5)c4)cs3)ccc2C[C@H]1N [Compound 210, (R)-2-amino-3,3-dimethyl-N-(2-oxo-2-((4-(3-(pyridin-4-yl)phenyl)thiazol-2-yl)amino)ethyl)-2,3-dihydro-1H-indene-5-carboxamide]
13 |  |  |  |  | 0.1 to 1 | > 95 | >95 | < 0.1 | C[C@@H]1CN(c2cccc(-c3csc(NC(=O)CNC(=O)c4ccc5c(c4)[C@@](C)(O)COC5)n3)c2)C[C@H](C)O1 [Compound 437, (R)-N-(2-((4-(3-((cis)-2,6-dimethylmorpholino)phenyl)thiazol-2-yl)amino)-2-oxoethyl)-4-hydroxy-4-methylisochromane-6-carboxamide]
14 | > 5 | > 80 | >80 | 0.1 to 1 |  |  |  |  | CC(C)N1CCOc2ccc(C(=O)NCC(=O)Nc3nc(-c4cccc(N5C[C@@H](C)O[C@@H](C)C5)n4)cs3)cc21 [Compound 395, N-(2-((4-(6-((cis)-2,6-dimethylmorpholino)pyridin-2-yl)thiazol-2-yl)amino)-2-oxoethyl)-4-isopropyl-3,4-dihydro-2H-benzo[b][1,4]oxazine-6-carboxamide]
15 | 0.1 to 1 | > 95 | >95 | < 0.1 |  |  |  |  | C[C@@H]1CN(c2cccc(-c3csc(NC(=O)CNC(=O)c4ccc5c(c4)C(F)(C(F)F)CCO5)n3)n2)C[C@H](C)O1 (stereo in doubt) [Compound 273, (S)-4-(difluoromethyl)-N-(2-((4-(6-((cis)-2,6-dimethylmorpholino)pyridin-2-yl)thiazol-2-yl)amino)-2-oxoethyl)-4-fluorochromane-6-carboxamide]
16 | 0.1 to 1 | > 95 | >95 | < 0.1 |  |  |  |  | CC(NC(=O)c1ccc2c(c1)[C@](C)(F)COC2)C(=O)Nc1nc(-c2cccc(N3CCC3)c2)cs1 (stereo in doubt) [Compound 319, (S)-N-((R)-1-((4-(3-(azetidin-1-yl)phenyl)thiazol-2-yl)amino)-1-oxopropan-2-yl)-4-fluoro-4-methylisochromane-6-carboxamide]
17 | > 5 | > 30 | >70 | 0.1 to 1 |  |  |  |  | Cn1ccc(-c2cccc(-c3csc(NC(=O)CNC(=O)c4cccc(C(C)(C)CN)c4)n3)c2)n1 [Compound 69, 3-(1-amino-2-methylpropan-2-yl)-N-(2-((4-(3-(1-methyl-1H-pyrazol-3-yl)phenyl)thiazol-2-yl)amino)-2-oxoethyl)benzamide]
18 |  |  |  |  | 1 to 5 | > 95 | >95 | 0.1 to 1 | C[C@@H]1CN(c2cccc(-c3csc(NC(=O)CNC(=O)c4cccc([C@@]5(C)COC[C@@H]5O)c4)n3)n2)C[C@H](C)O1 (stereo in doubt) [Compound 413, N-(2-((4-(6-((cis)-2,6-dimethylmorpholino)pyridin-2-yl)thiazol-2-yl)amino)-2-oxoethyl)-3-((cis)-4-hydroxy-3-methyltetrahydrofuran-3-yl)benzamide]
19 | 1 to 5 | > 90 | >90 | 0.1 to 1 |  |  |  |  | COC(=O)N1CCC(c2csc(NC(=O)CNC(=O)c3ccc4c(c3)[C@](C)(F)COC4)n2)CC1 [Compound 281, methyl (S)-4-(2-(2-(4-fluoro-4-methylisochromane-6-carboxamido)acetamido)thiazol-4-yl)piperidine-1-carboxylate]
20 | 0.1 to 1 | > 95 | >95 | < 0.1 |  |  |  |  | C[C@@]1(C#N)COCc2ccc(C(=O)NCC(=O)Nc3nc(-c4cccc([C@H]5CC5(F)F)c4)cs3)cc21 [Compound 391, (R)-4-cyano-N-(2-((4-(3-((R)-2,2-difluorocyclopropyl)phenyl)thiazol-2-yl)amino)-2-oxoethyl)-4-methylisochromane-6-carboxamide]
21 | > 5 | > 80 | >70 | > 5 |  |  |  |  | CC(C)S(=O)(=O)c1cccc(C(=O)NCC(=O)Nc2nc(-c3cc(C#N)cc(-c4ccc(CN)cc4)c3)cs2)c1 [Compound 33, N-[2-[[4-[3-[4-(aminomethyl)phenyl]-5-cyano-phenyl]thiazol-2-yl]amino]-2-oxo-ethyl]-3-isopropylsulfonyl-benzamide]
